In patent US20240197652A1, “KETAMINE IN THE TREATMENT OF […]” (Awakn LS Europe Holdings Limited, priority 2021, published 2024):

Experiments:
Type in all cases: in vivo, human
[1] = Plasma ketamine, HNK and norketamine levels, gambling disorder subjects (Example 7); conditions: analyte = label; for peak plasma concentration: 100 mg racemic ketamine sublingual; for time of peak plasma concentration: post-administration of 100 mg racemic ketamine sublingual
Method: A study was completed on the use of ketamine to treat gambling disorder. Subjects were assessed for gambling disorder using the PGSI. Subjects were included if they received a PGSI score greater than 3. Five subjects in total were included (G1-G5). All five subjects were administered ketamine. Blood samples were collected from all five subjects. Blood samples were analysed to determine ketamine and ketamine metabolite levels, and each subject was assessed post-administration to determine the effectiveness of the treatment.
On Day 3, each subject returned on-site and was administered ketamine. 100 mg of racemic ketamine was administered in as sublingual lozenges.
(§1) Blood samples were collected every 10 minutes, from 0 minutes (the time of administration) to 90 minutes post-administration. Blood samples at each time point were analysed to determine plasma levels of (2S,6S;2R,6R)-Hydroxynorketamine (HNK).

[2] = Plasma ketamine, HNK and norketamine levels, gaming disorder subjects (Example 9); conditions: analyte = label; for peak plasma concentration: 100 mg racemic ketamine sublingual; for time of peak plasma concentration: post-administration of 100 mg racemic ketamine sublingual
Method: A study was completed on ketamine to treat gaming disorder. Subjects were assessed for gaming disorder using the Internet Gaming Disorder Scale (IGDS) and were included if they received an IGDS score greater than 3. Three subjects in total were included (IG1-IG3). All three were administered sublingual lozenges comprising 100 mg of racemic ketamine.
(§2) Blood samples were collected from all three subjects. Blood samples were analysed to determine ketamine and ketamine metabolite levels. Assessments were conducted as below.
The treatment protocol commenced in the same manner as disclosed in the ketamine in subjects with gambling disorder study completed in EXAMPLE 7, with the exceptions as follow: No behavioural tasks were completed. Self-report measures completed during EXAMPLE 9 included Social Phobia Inventory (SPIN), the Craving for Gaming Questionnaire (CGQ), and Generalised Anxiety Disorder-7 (GAD-7) the Sensitivity to Reward and Punishment Scale, and the Childhood Trauma Questionnaire, the Morningness-Eveningness Questionnaire (MEQ).

[3] = Plasma ketamine, HNK and norketamine levels, CSBD subjects (Example 10); conditions: analyte = label; for peak plasma concentration: 100 mg racemic ketamine sublingual; for time of peak plasma concentration: post-administration of 100 mg racemic ketamine sublingual
Method: A study was completed on the use of ketamine to treat CSBD. Subjects were assessed for CSBD using the Problematic Pornography Use Scale (PPUS) and were included if they received an PPUS score greater than 3. Three subjects in total were included (CSB1-CSB3). All three were administered sublingual lozenges comprising 100 mg of racemic ketamine.
as §2
The treatment protocol commenced in the same way as disclosed in the ketamine in subjects with gambling disorder study completed in EXAMPLE 7, with the exceptions outlined as follows: No behavioural tasks were completed. Self-report measures completed during EXAMPLE 10 included the Emotional Intimacy Measure, the Childhood Trauma Questionnaire, the Generalised Anxiety Disorder-7 (GAD-7), the Morningness-Eveningness Questionnaire (MEQ), and the Problematic Pornography Questionnaire (PPQ), the Acceptance and Action Questionnaire, and the Psychological and Interpersonal Relationship Scales (PAIRS).

[4] = Mean plasma ketamine, HNK and norketamine, all subjects of Examples 7-10; conditions: 100 mg racemic ketamine sublingual, analyte = label; for concentration at 10 min / concentration at 20 min / concentration at 30 min / concentration at 40 min / concentration at 50 min / concentration at 60 min / concentration at 70 min / concentration at 80 min / concentration at 90 min: human, plasma, other: sublingual
Method: as §1
FIGS. 11-13 illustrate ketamine, HNK, and norketamine levels, respectively, for all subjects of EXAMPLES 7-10, while FIG. 14 illustrates the mean plasma levels of ketamine, HNK, and norketamine for all subjects of EXAMPLES 7-10. Results indicated a mean plasma concentration of ketamine of 104.87 ng/ml at 10 minutes, 230.11 ng/ml at 20 minutes, 267.08 ng/ml at 30 minutes, 271.62 ng/ml at 40 minutes, 288.48 ng/ml at 50 minutes, 272.42 ng/ml at 60 minutes, 263.40 ng/ml at 70 minutes, 227.50 ng/ml at 80 minutes, and 176.91 ng/ml at 90 minutes. Mean HNK was 0 at 10 minutes, 12.22 ng/ml at 20 minutes, 56.73 ng/ml at 30 minutes, 79.10 ng/ml at 40 minutes, 126.20 ng/ml at 50 minutes, 198.87 ng/ml at 60 minutes, 221.08 ng/ml at 70 minutes, 209.14 ng/ml at 80 minutes, and 217.32 ng/ml at 90 minutes. Mean norketamine was 1.92 at 10 minutes, 57.39 ng/ml at 20 minutes, 141.78 ng/ml at 30 minutes, 286.02 ng/ml at 40 minutes, 505.15 ng/ml at 50 minutes, 646.73 ng/ml at 60 minutes, 750.57 ng/ml at 70 minutes, 723.79 ng/ml at 80 minutes, and 653.94 ng/ml at 90 minutes.

Compound	peak plasma concentration ([1]; subject G1)	time of peak plasma concentration ([1]; subject G1)	peak plasma concentration ([1]; subject G2)	time of peak plasma concentration ([1]; subject G2)	peak plasma concentration ([1]; subject G3)	time of peak plasma concentration ([1]; subject G3)	peak plasma concentration ([1]; subject G4)	time of peak plasma concentration ([1]; subject G4)	peak plasma concentration ([1]; subject G5)	time of peak plasma concentration ([1]; subject G5)	peak plasma concentration ([2]; subject IG1)	time of peak plasma concentration ([2]; subject IG1)	peak plasma concentration ([2]; subject IG2)	time of peak plasma concentration ([2]; subject IG2)	peak plasma concentration ([2]; subject IG3)	time of peak plasma concentration ([2]; subject IG3)	peak plasma concentration ([3]; subject CSB1)	time of peak plasma concentration ([3]; subject CSB1)	peak plasma concentration ([3]; subject CSB2)	time of peak plasma concentration ([3]; subject CSB2)	also measured
CNC1(c2ccccc2Cl)CCCCC1=O (racemic) [ketamine, 2-(2-chlorophenyl)-2-(methylamino)-cyclohexanone]	about 250 ng/ml	30 min	about 405 ng/ml	70 min	about 395 ng/ml	80 min	about 291 ng/ml	80 min	about 426 ng/ml	about 20 minutes	about 390 ng/ml	50 min	about 301 ng/ml	50 min	about 670 ng/mL	50 min	about 368 ng/ml	70 min	about 285 ng/ml	30 min	peak plasma concentration ([3]; subject CSB3): about 395 ng/mL; time of peak plasma concentration ([3]; subject CSB3): 50 min; concentration at 10 min ([4]; 10 minutes post-administration): 105 ng/mL; concentration at 20 min ([4]; 20 minutes post-administration): 230 ng/mL; concentration at 30 min ([4]; 30 minutes post-administration): 267 ng/mL; concentration at 40 min ([4]; 40 minutes post-administration): 272 ng/mL; concentration at 50 min ([4]; 50 minutes post-administration): 288 ng/mL; concentration at 60 min ([4]; 60 minutes post-administration): 272 ng/mL; concentration at 70 min ([4]; 70 minutes post-administration): 263 ng/mL; concentration at 80 min ([4]; 80 minutes post-administration): 228 ng/mL; concentration at 90 min ([4]; 90 minutes post-administration): 177 ng/mL
N[C@@]1(c2ccccc2Cl)CCC[C@@H](O)C1=O [HNK, (2S,6S;2R,6R)-hydroxynorketamine]	about 300 ng/ml	80 min	about 319 ng/ml	70 min	about 175 ng/ml	90 min	about 134 ng/ml	90 min	about 615 ng/ml	about 60 minutes	about 287 ng/ml	90 min	about 279 ng/ml	90 min	about 407 ng/mL	60 min	about 136 ng/ml	80 min	about 135 ng/ml	90 min	peak plasma concentration ([3]; subject CSB3): about 314 ng/mL; time of peak plasma concentration ([3]; subject CSB3): 70 min; mean plasma concentration ([4]; 10 minutes post-administration): 0 ng/mL; mean plasma concentration ([4]; 20 minutes post-administration): 12.22 ng/mL; mean plasma concentration ([4]; 30 minutes post-administration): 56.73 ng/mL; mean plasma concentration ([4]; 40 minutes post-administration): 79.10 ng/mL; mean plasma concentration ([4]; 50 minutes post-administration): 126.20 ng/mL; mean plasma concentration ([4]; 60 minutes post-administration): 198.87 ng/mL; mean plasma concentration ([4]; 70 minutes post-administration): 221.08 ng/mL; mean plasma concentration ([4]; 80 minutes post-administration): 209.14 ng/mL; mean plasma concentration ([4]; 90 minutes post-administration): 217.32 ng/mL
NC1(c2ccccc2Cl)CCCCC1=O (racemic) [Norketamine, (R,S)-norketamine]	about 592 ng/ml	80 min	about 1,450 ng/ml	70 min	about 574 ng/ml	80 min	about 495 ng/ml	90 min	about 1,079 ng/ml	about 90 minutes	about 627 ng/ml	70 min	about 1,040 ng/ml	50 min	about 1,116 ng/mL	60 min	about 1,069 ng/ml	80 min	about 785 ng/ml	70 min	peak plasma concentration ([3]; subject CSB3): about 923 ng/mL; time of peak plasma concentration ([3]; subject CSB3): 70 min; concentration at 10 min ([4]; 10 minutes post-administration): 1.92 ng/mL; concentration at 20 min ([4]; 20 minutes post-administration): 57.4 ng/mL; concentration at 30 min ([4]; 30 minutes post-administration): 142 ng/mL; concentration at 40 min ([4]; 40 minutes post-administration): 286 ng/mL; concentration at 50 min ([4]; 50 minutes post-administration): 505 ng/mL; concentration at 60 min ([4]; 60 minutes post-administration): 647 ng/mL; concentration at 70 min ([4]; 70 minutes post-administration): 751 ng/mL; concentration at 80 min ([4]; 80 minutes post-administration): 724 ng/mL; concentration at 90 min ([4]; 90 minutes post-administration): 654 ng/mL
